# According to PMC9446078 (Frontiers in Endocrinology, 2022):
# Counter-ions that a name gives are not always drawn.
# Columns and labels:
# red blood cells = test: Inhibition of sorbitol formation in erythrocytes; assay type: cell-based, human; settings: at IC50 concentration; compared with glucose-induced sorbitol levels (30 mM glucose, 3 h)
# Procedure: The method in brief is discussed below. Five milliliters of blood sample was obtained from a healthy volunteer on overnight fasting in heparinized tubes. Red blood cells were separated by centrifugation and washed three times with isotonic saline at 4°C. The washed RBC were suspended in Kreb’s ringer bicarbonate buffer, pH 7.4 (preequilibrated with 5% CO2), and incubated at 37°C in the presence of 5% CO2 for 3 h under normal (3.0 mM) and high glucose (30 mM) conditions. […] At the end of the incubation period, RBC was homogenized in nine volumes of 0.8 M perchloric acid. The homogenate was centrifuged at 5,000 × g at 4°C for 10 min, and the pH of the supernatant was adjusted to 3.5 with 0.5 M potassium carbonate. The sorbitol content of the supernatant was measured by fluorometric method as described previously ([14]) using a spectrofluorometer (Jasco-FP-6500).
# bovine serum albumin = test: Inhibition of advanced glycation end products (fluorometric, glucose + bovine serum albumin); assay type: biochemical; settings: control mean 7.5
# Procedure: Fluorescence was measured at the excitation wavelength of 360 nm and the emission wavelength of 440 nm. Afterwards, the samples were cooled to room temperature.
# [1] = test system: Ea.hy926 (human endothelial cells); test: Scratch assay, endothelial cell migration under high glucose; assay type: cell-based
# Procedure: High blood glucose levels hamper the migration of human fibroblasts, endothelial cells, and keratinocytes that impair wound healing ([16]–[20]). […] The detailed protocol and cytotoxicity results are provided in the Supplementary File. An actively growing culture of HFF-1 (human dermal fibroblasts), Ea.hy926 (human endothelial cells), and HaCaT (human keratinocytes) cell lines in Dulbecco’s modified Eagle’s medium containing 25 mM glucose supplemented with 10% fetal bovine serum was prepared. The cells were counted through a hemocytometer and were seeded at a density of 0.08 × 10^6 (HFF-1), 0.1 × 10^6 (Ea.hy926), and 0.2 × 10^6 (HaCaT Cells) cells/well/ml of culture medium. The plates were incubated overnight followed by serum starvation for 24 h. Scratch wounds were made in a confluent monolayer by making a straight scratch in the center of the well using a sterile 200-µl pipette microtip. […] The kinetics of migration of the cells in the wound was recorded by phase-contrast microscopy. The experiment was carried out in duplicate cells for each concentration.
# [2] = MTT cytotoxicity in HaCaT; assay type: cell-based, human; settings: human, HaCaT cells, 48 h, read-out: % Cytotoxicity w.r.t. untreated cells
# Procedure: (§1) 1. HaCaT, HFF-1 and Ea.hy926 cells were counted and plated in 96 well plates at the density corresponding to 5 X 10^3 cells/well/180 μl of cell growth medium.
# (§2) 2. The above cells were then incubated overnight under growth conditions of 37°C, 95 % Humidity, 5 % CO2.so as to allow the cell recovery and exponential growth.
# (§3) 3. Following overnight incubation, the above cells were serum starved in DMEM (containing 25 mM glucose) supplemented with […] for 24 h.
# (§4) 5. The Ea.hy926 cells were then incubated for 24 h and HaCaT and HFF-1 cells were incubated for 48 h in CO2 incubator at 37 °C, 5 % CO2 and 95 % humidity.
# (§5) 6. Following incubation, the plates were taken out and 20 μl of 5 mg/ml of MTT 3-(4,5-dimethythiazol-2-yl)-2,5-diphenyl tetrazolium bromide solution was added to all the wells followed by additional incubation for 3 h at 37 °C. The supernatant was aspirated and 150 μl of DMSO was added to each well to dissolve formazan crystals. The absorbance of each well was then read at 540 nm using Synergy HT micro plate reader.
# (§6) 7. The percentage cytotoxicity at each tested concentration was calculated using the following formula:
# (§7) % Cytotoxicity = (1-X/R)*100
# HaCaT cells = test: MTT cytotoxicity in HaCaT; assay type: cell-based, human; settings: all tested concentrations (0.01 to 1000 μM), <30% = non-cytotoxic
# Procedure: as §1, §2, §3, §4, §5, §6, §7
# [3] = MTT cytotoxicity in Ea.hy926; assay type: cell-based, human; settings: human, Ea.hy926 cells, Ea.hy926, 24 h, read-out: % Cytotoxicity w.r.t. untreated cells
# Procedure: as §1, §2, §3, §4, §5, §6, §7
# Ea.hy926 cells = test: MTT cytotoxicity in Ea.hy926; assay type: cell-based, human; settings: Ea.hy926, all tested concentrations (0.01 to 1000 μM); <30% = non-cytotoxic
# Procedure: as §1, §2, §3, §4, §5, §6, §7
# Hanford miniature swine = test: 12-week dermal toxicity study in miniature swine; assay type: in vivo
# Procedure: A total of 40 Hanford miniature swine (20 male and 20 female) divided into four treatment groups were used for this study. A 12-week topical application of Galnobax 20% was carried out in the miniature swine wound healing model with twice-daily dosing. Six wounds (10 cm^2 each) of partial thickness were created on the dorsal region of all animals. Four wounds of each animal received twice-daily topical doses of either the vehicle or Galnobax gel, and the remaining two sites served as untreated comparative control wounds. Each group has four male and female miniature swine for the assessments and one each for the recovery period as given in Table 1 . Safety parameters in terms of ECG, clinical pathology, wound site evaluation, and toxicokinetics were performed during the study.
# [4] = set-up: method as in PMID 2879662, PMID 7957532, PMID 6135794; settings: approved (intravenous) dose; cited from earlier work
structure (smiles),measurement,setting,value
COC(=O)CCc1ccc(OCC(O)CNC(C)C)cc1 (stereo not drawn) [Esmolol hydrochloride],inhibition of sorbitol formation in red blood cells,red blood cells,59%
same,"Fluorescence measurement, mean",bovine serum albumin; 500 µM,5
same,"Fluorescence measurement, mean",bovine serum albumin; 1 mM,2.6
same,"Fluorescence measurement, mean","bovine serum albumin; 1 mM, listed as esmolol",2.6 ± 1.7
same,migration of endothelial cells,"[1]; 1 and 10 µM, compared with control, high glucose",enhanced the migration
same,migration of endothelial cells,[1]; 100 and 500 µM compared with 1 and 10 µM,lower migration
same,"cytotoxicity at 48 h, 0.01 µM",[2]; 0.01 μM,-19.2%
same,"cytotoxicity at 48 h, 0.1 µM",[2]; 0.1 μM,-8.02%
same,"cytotoxicity at 48 h, 1 µM",[2]; 1 μM,-6.93%
same,"cytotoxicity at 48 h, 10 µM",[2]; 10 μM,-14.8%
same,"cytotoxicity at 48 h, 50 µM",[2]; 50 μM,-18.1%
same,"cytotoxicity at 48 h, 100 µM",[2]; 100 μM,-18.5%
same,"cytotoxicity at 48 h, 500 µM",[2]; 500 μM,16.2%
same,"cytotoxicity at 48 h, 1000 µM",[2]; 1000 μM,18.3%
same,cytotoxicity,HaCaT cells,non-cytotoxic
same,"cytotoxicity at 24 h, 0.01 µM",[3]; 0.01 μM,5.84%
same,"cytotoxicity at 24 h, 0.1 µM",[3]; 0.1 μM,1.73%
same,"cytotoxicity at 24 h, 1 µM",[3]; 1 μM,11.4%
same,"cytotoxicity at 24 h, 10 µM",[3]; 10 μM,13.8%
same,"cytotoxicity at 24 h, 50 µM",[3]; 50 μM,3.85%
same,"cytotoxicity at 24 h, 100 µM",[3]; 100 μM,2.79%
same,"cytotoxicity at 24 h, 500 µM",[3]; 500 μM,17.5%
same,"cytotoxicity at 24 h, 1000 µM",[3]; 1000 μM,12.7%
same,cytotoxicity,Ea.hy926 cells,non-cytotoxic
same,local reactions at the injection sites,Hanford miniature swine; subcutaneously administered esmolol (30 mg/kg once or twice daily) plus topical Galnobax,moderate to severe local reactions
same,ovary weights,"Hanford miniature swine; subcutaneously administered esmolol plus topical Galnobax, no histopathologic changes",reduction in absolute and relative ovary weights
same,Cmax of the approved human dose,[4],"868–1,470 ng/ml"
